Experiment [1] concerns MDR strain of Mycobacterium tuberculosis. As to the kind of experiment: Anti-tubercular activity, colorimetric Resazurin Microplate Assay (REMA). Conditions: 192 h, read-out: Anti-tubercular activity against Mycobacterium tuberculosis MDR (MIC). The format is cell-based.
The subject of experiment [2] is XDR strain of Mycobacterium tuberculosis. The experiment is described as above. The format is cell-based. The following applies: 192 h, read-out: Anti-tubercular activity against Mycobacterium tuberculosis XDR (MIC).

The structures appear in SMILES notation.

Regarding `CC(C)OC(=O)c1cc[n+](CC(=O)c2ccc(F)cc2)cc1.[Br-]` [Compound 4b, 1-(2-(4-Fluorophenyl)-2-oxoethyl)-4-(isopropoxycarbonyl)pyridin-1-ium bromide], the values for the MIC in experiment [1] and in experiment [2] were 1 µg/mL and 16 µg/mL, respectively.
For `CC(C)OC(=O)c1cc[n+](CC(=O)c2ccccc2)cc1.[Br-]` [Compound 4a, 4-(Isopropoxycarbonyl)-1-(2-oxo-2-phenylethyl)pyridin-1-ium Bromide], the MIC in experiment [1] and in experiment [2] was 2 µg/mL throughout.

These data come from US11919860B1 (priority 2023, dated 2024).
